The values that follow come from patent US11492335B2, “Aryl or heteroaryl triazolone derivatives or salts thereof, or pharmaceutical compositions comprising the same” (YUHAN CORPORATION, priority 2018, dated 2022).

What all share (type): biochemical
One assay concerns the target T1, recombinant human VAP-1 (Homo sapiens, UniProt Q16853).
T1 construct: purchased R&D systems
T1 sequence (Q16853 1-763): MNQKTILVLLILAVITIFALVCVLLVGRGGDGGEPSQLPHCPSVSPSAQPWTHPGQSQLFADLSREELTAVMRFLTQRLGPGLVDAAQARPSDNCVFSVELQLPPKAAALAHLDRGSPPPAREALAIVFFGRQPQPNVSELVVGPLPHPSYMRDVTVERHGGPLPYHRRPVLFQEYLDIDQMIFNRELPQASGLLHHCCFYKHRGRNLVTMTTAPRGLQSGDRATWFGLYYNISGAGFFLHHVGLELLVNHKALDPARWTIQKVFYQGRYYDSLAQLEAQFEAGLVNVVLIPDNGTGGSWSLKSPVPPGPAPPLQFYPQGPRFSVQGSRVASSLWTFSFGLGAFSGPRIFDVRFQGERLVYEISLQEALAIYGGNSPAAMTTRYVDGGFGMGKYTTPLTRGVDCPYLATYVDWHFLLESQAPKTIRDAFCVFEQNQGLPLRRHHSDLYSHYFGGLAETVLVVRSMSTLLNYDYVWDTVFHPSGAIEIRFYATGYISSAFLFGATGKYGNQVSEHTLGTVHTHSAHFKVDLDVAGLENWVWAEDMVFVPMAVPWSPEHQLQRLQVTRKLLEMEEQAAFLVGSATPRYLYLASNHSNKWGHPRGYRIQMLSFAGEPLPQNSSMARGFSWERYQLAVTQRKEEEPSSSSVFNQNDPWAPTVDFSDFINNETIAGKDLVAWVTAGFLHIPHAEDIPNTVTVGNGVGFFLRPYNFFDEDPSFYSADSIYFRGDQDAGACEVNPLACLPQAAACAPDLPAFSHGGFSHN
Nature of the assay: Activity on recombinant human VAP-1, Amplex Red HRP-coupled hydrogen peroxide assay, benzylamine substrate. The following applies: recombinant human VAP-1, benzylamine substrate, 30 min preincubation at 37° C.; read-out: Inhibitory Activity (IC50, nM) human VAP-1. The essentials:
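Fluorescence of resorufin formed from H2O2 (ex 544 nm, em 590 nm) was tracked for 1-2 h after adding 1 mM benzylamine, 200 uM Amplex Red and 1 U/mL HRP to enzyme pretreated with compound for 30 min at 37 °C. IC50 values derive from four-variable logistic fits.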

The target in assay [1] is T2, recombinant human MAO-A (monoamine oxidase-A) (Homo sapiens, UniProt P21397).
T2 construct: purchased Sigma-Aldrich
T2 sequence (P21397 1-527): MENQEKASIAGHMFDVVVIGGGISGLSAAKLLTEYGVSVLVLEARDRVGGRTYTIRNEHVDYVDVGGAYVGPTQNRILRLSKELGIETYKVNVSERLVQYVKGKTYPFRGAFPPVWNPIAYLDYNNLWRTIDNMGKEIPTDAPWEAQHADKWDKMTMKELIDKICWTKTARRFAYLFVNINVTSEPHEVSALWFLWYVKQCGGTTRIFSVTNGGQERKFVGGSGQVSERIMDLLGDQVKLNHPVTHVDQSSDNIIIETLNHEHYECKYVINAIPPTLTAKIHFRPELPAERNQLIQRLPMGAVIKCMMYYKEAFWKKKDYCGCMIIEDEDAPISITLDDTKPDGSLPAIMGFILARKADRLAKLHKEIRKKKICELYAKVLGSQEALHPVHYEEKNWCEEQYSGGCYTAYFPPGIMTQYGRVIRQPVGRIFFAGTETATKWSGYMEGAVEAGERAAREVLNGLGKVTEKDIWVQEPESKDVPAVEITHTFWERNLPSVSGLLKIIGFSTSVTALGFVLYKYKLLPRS
Nature of the assay: Activity on recombinant human MAO-A, Amplex Red method, 0.5 mM tyramine substrate. As to conditions: 0.5 mM tyramine, read-out: Inhibitory Activity (IC50, nM) MAO-A. In a few lines: (§1)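 Fluorescence (544/590 nm) of resorufin formed from Amplex Red by HRP and enzyme-generated H2O2 was followed over 1-2 h. Substrates were 0.5 mM tyramine for MAO-A and 1 mM benzylamine for MAO-B; compounds were preincubated with enzyme for 30 min at 37° C. IC50 came from four-parameter logistic fitting of signal-rate inhibition.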

Assay [2] concerns the target T3, recombinant human MAO-B (monoamine oxidase-B) (Homo sapiens, UniProt P27338).
T3 construct: purchased Sigma-Aldrich
T3 sequence (P27338 1-520): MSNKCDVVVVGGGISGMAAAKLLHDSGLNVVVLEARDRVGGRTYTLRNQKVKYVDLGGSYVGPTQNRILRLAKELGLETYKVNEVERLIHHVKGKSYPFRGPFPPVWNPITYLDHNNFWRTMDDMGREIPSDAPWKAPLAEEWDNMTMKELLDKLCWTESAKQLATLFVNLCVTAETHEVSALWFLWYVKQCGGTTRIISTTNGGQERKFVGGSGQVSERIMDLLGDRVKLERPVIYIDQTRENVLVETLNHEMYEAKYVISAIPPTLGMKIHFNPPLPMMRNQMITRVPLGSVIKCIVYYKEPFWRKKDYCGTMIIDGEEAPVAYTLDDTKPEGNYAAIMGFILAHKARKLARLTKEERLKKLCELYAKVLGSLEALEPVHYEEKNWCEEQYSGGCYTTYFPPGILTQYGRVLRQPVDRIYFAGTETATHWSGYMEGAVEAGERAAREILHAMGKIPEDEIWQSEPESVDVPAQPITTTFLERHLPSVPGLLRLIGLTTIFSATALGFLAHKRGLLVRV
Nature of the assay: Activity on recombinant human MAO-B, Amplex Red method, 1 mM benzylamine substrate. As to conditions: 1 mM benzylamine, read-out: Inhibitory Activity (IC50, nM) MAO-B. In a few lines:
as §1

The target of assay [3] is T4, recombinant human DAO (diamine oxidase) (Homo sapiens, UniProt P19801).
T4 construct: purchased R&D systems
T4 sequence (P19801 20-751): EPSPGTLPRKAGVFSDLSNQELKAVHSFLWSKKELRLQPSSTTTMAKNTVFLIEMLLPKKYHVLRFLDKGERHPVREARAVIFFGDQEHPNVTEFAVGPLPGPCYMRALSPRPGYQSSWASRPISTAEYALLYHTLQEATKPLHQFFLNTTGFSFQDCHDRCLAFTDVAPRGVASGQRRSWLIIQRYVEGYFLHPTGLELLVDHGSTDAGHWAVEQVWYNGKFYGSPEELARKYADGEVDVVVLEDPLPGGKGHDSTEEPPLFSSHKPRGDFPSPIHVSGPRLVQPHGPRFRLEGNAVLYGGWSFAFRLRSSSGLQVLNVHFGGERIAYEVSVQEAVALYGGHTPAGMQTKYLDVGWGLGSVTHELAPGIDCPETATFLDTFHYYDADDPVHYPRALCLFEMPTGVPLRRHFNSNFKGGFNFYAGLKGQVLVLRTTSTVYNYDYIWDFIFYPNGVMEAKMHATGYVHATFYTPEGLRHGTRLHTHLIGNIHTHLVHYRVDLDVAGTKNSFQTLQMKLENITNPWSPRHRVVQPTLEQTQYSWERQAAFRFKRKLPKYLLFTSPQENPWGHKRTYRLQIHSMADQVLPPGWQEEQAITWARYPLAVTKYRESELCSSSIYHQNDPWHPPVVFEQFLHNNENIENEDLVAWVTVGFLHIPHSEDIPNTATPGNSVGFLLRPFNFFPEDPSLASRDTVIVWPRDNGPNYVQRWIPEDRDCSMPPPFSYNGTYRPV
Nature of the assay: Activity on recombinant human DAO, Amplex Red method, 1 mM putrescine substrate. As to conditions: recombinant human DAO, 1 mM putrescine; * = between 10 and 100 nM, ** = between 300 and 1000 nM; read-out: Inhibitory Activity (IC50, nM) DAO. The essentials:
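Inhibition of recombinant human DAO (diamine oxidase, R&D systems) was assessed with the Amplex Red Hydrogen Peroxide Assay Kit. Hydrogen peroxide produced from 1 mM putrescine was detected through an HRP-coupled reaction that converts Amplex Red into fluorescent resorufin, read at 544 nm excitation and 590 nm emission. IC50 values came from four-parameter logistic fits in GraphPad Prism.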

Structures can show the parent of a compound that is named as a salt.

As to `Cc1cc(-n2cnn(C/C(=C/F)CN)c2=O)cnc1-c1ccc2sc(N)nc2c1` [Example 118, 4-[6-(2-amino-1,3-benzothiazol-5-yl)-5-methylpyridin-3-yl]-2-[(2E)-2-(aminomethyl)-3-fluoroprop-2-en-1-yl]-2,4-dihydro-3H-1,2,4-triazol-3-one hydrochloride], the IC50 was 0.34 nM on recombinant human VAP-1, over 100000 nM in assay [1], 3040 nM in assay [2] and 1.7 nM in assay [3].

Take `CC(=O)Nc1ccc(-c2cc(C)c(-n3cnn(C/C(=C/F)CN)c3=O)cn2)cc1` [Example 120, N-[4-(5-{1-[(2E)-2-(aminomethyl)-3-fluoroprop-2-en-1-yl]-5-oxo-1,5-dihydro-4H-1,2,4-triazol-4-yl}-4-methylpyridin-2-yl)phenyl]acetamide]: the IC50 at recombinant human VAP-1 is 1.4 nM; in assay [1], over 100000 nM; in assay [2] it was over 10000 nM; in assay [3] it was 110 nM.

With `Cc1cc(-c2ccc(-c3nc[nH]n3)cc2)ncc1-n1cnn(C/C(=C/F)CN)c1=O` [Example 121, 2-[(2E)-2-(aminomethyl)-3-fluoroprop-2-en-1-yl]-4-{4-methyl-6-[4-(1H-1,2,4-triazol-3-yl)phenyl]pyridin-3-yl}-2,4-dihydro-3H-1,2,4-triazol-3-one], the IC50 at recombinant human VAP-1 is 0.7 nM; in assay [1], over 100000 nM; in assay [2] it was 456 nM; in assay [3], under 100 nM.

Take `CC(=O)Nc1cc(-c2cc(C)c(-n3cnn(C/C(=C/F)CN)c3=O)cn2)ccn1` [Example 123, N-(5-{1-[(2E)-2-(aminomethyl)-3-fluoroprop-2-en-1-yl]-5-oxo-1,5-dihydro-4H-1,2,4-triazol-4-yl}-4-methyl-2,4′-bipyridin-2′-yl)acetamide]: the IC50 is 1.3 nM on recombinant human VAP-1, over 100000 nM in assay [1], 3220 nM in assay [2] and under 100 nM in assay [3].

With `Cc1cc(-c2ccc(N3CCOCC3)nc2)ncc1-n1cnn(C/C(=C/F)CN)c1=O` [Example 124, 2-[(2E)-2-(aminomethyl)-3-fluoroprop-2-en-1-yl]-4-[4-methyl-6′-(morpholin-4-yl)-2,3′-bipyridin-5-yl]-2,4-dihydro-3H-1,2,4-triazol-3-one], the IC50 on recombinant human VAP-1 was 0.89 nM; in assay [1], over 100000 nM; in assay [2], over 10000 nM; in assay [3], under 100 nM.

For the compound `Cc1cc(-c2ccc3cn[nH]c3c2)ncc1-n1cnn(C/C(=C/F)CN)c1=O` [Example 126, 2-[(2E)-2-(aminomethyl)-3-fluoroprop-2-en-1-yl]-4-[6-(1H-indazol-6-yl)-4-methylpyridin-3-yl]-2,4-dihydro-3H-1,2,4-triazol-3-one], the IC50 on recombinant human VAP-1 is 0.87 nM; in assay [1], over 100000 nM; in assay [2], 133 nM; in assay [3] it was under 100 nM.

With `Cc1cc(-c2ccc3sc(N)nc3c2)ncc1-n1cnn(C/C(=C/F)CN)c1=O` [Example 127, 4-[6-(2-amino-1,3-benzothiazol-5-yl)-4-methylpyridin-3-yl]-2-[(2E)-2-(aminomethyl)-3-fluoroprop-2-en-1-yl]-2,4-dihydro-3H-1,2,4-triazol-3-one], the IC50 at recombinant human VAP-1 is 1.6 nM; in assay [1], over 100000 nM; in assay [2], 617 nM; in assay [3], under 100 nM.

As for `CS(=O)(=O)c1ccc(-c2ccc(-n3cnn(C/C(=C\F)CN)c3=O)nc2)cc1` [Example 129, 2-[(2Z)-2-(aminomethyl)-3-fluoroprop-2-en-1-yl]-4-{5-[4-(methylsulfonyl)phenyl]pyridin-2-yl}-2,4-dihydro-3H-1,2,4-triazol-3-one hydrochloride], the IC50 on recombinant human VAP-1 is 0.45 nM; in assay [1] it was over 100000 nM; in assay [2], 10 nM; in assay [3], under 1 nM.

Regarding `CC(=O)Nc1ccc(-c2ccc(-n3cnn(C/C(=C\F)CN)c3=O)nc2)cc1` [Example 130, N-[4-(6-{1-[(2Z)-2-(aminomethyl)-3-fluoroprop-2-en-1-yl]-5-oxo-1,5-dihydro-4H-1,2,4-triazol-4-yl}pyridin-3-yl)phenyl]acetamide hydrochloride], the IC50 is 0.39 nM on recombinant human VAP-1, 26000 nM in assay [1], 20 nM in assay [2] and 1 to 10 nM in assay [3].

As for `CC(=O)c1ccc(-c2cnc(-n3cnn(C/C(=C/F)CN)c3=O)c(C)c2)s1` [Example 132, 4-[5-(5-acetylthiophen-2-yl)-3-methylpyridin-2-yl]-2-[(2E)-2-(aminomethyl)-3-fluoroprop-2-en-1-yl]-2,4-dihydro-3H-1,2,4-triazol-3-one hydrochloride], the IC50 at recombinant human VAP-1 is 0.54 nM; in assay [1], 62000 nM; in assay [2] it was 850 nM; in assay [3], 280 nM.

The term IC50 denotes the concentration at which inhibition is half-maximal.
